SMILES strings stand for the structures.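 Protocol summary: plate cells (96-well), add compound at 5 concentrations, incubate 48 h, interpolate endpoints linearly. At the GI50, growth is halved. The concentration for full growth arrest is given as TGI.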

This passage reports TGI and GI50 results from PubChem BioAssay (NCI).

What all share (assay): NCI anticancer screen, dose series, 48 h
In experiment [1] the test system is A549 NSCLC.
The test system of experiment [2] is SR leukemia.
For experiment [3], the system named is HT29 colon.
Experiment [4] relates to HOP-92 NSCLC.
Experiment [5] deals with SK-MEL-28 melanoma.
Experiment [6] has as its system PC-3 prostate.
Experiment [7] concerns HOP-62 NSCLC.
The test system of experiment [8] is ACHN renal.
Experiment [9] concerns RXF 393 renal.
Experiment [10] concerns MOLT-4 leukemia.

Consider `N=c1ccn2c(n1)OC1C(OP(=O)(O)O)C(CO)OC12` (stereo unspecified), for which the TGI in experiment [1] is > 100 µM; in experiment [2], > 51.1 µM; in experiment [3], > 100 µM; in [4], > 100 µM; in experiment [5], > 100 µM; in [6], > 100 µM. Further, the TGI in experiment [7] is > 100 µM; in [8] it was 14 µM; in [9], > 100 µM; in experiment [10] it was > 63.3 µM.
As to `COc1cc2c(c(OC)c1OC)-c1ccc([O-])c(=O)cc1[C@@H](NC(C)=O)CC2.COc1cc2c(c(OC)c1OC)-c1ccc([O-])c(=O)cc1[C@@H](NC(C)=O)CC2.[Cu+2]`, the GI50 is 6.5 µM in experiment [1]; 1.54 µM in experiment [2]; 3.43 µM in experiment [3]; 17.5 µM in experiment [4]; 7.82 µM in [5]; 3.63 µM in [6]. Also, the GI50 in [7] was 5.67 µM; in [8] it was 7.83 µM; in experiment [9], 3.87 µM; in [10] it was 3.42 µM. The TGI in [1] is > 100 µM; in [2], 6.89 µM; in experiment [3], > 100 µM; in experiment [4] it was > 100 µM; in experiment [5], > 100 µM; in experiment [6] it was > 100 µM. The TGI is > 100 µM in experiment [7], > 100 µM in [8], > 100 µM in experiment [9] and 21.1 µM in experiment [10].
On to `Nc1nc(N)c2nc(CNc3ccc(C(=O)CC(CCC(=O)O)C(=O)O)cc3)cnc2n1` (stereo unspecified), for which the GI50 is 0.153 µM in experiment [1]; < 0.019 µM in [2]; 0.0417 µM in experiment [3]; > 100 µM in experiment [4]; > 50.7 µM in experiment [5]; 0.127 µM in experiment [7]. Moreover, the results for the GI50 in experiment [8], in experiment [9] and in experiment [10] were 0.162 µM, > 100 µM and 0.125 µM, respectively. The TGI in experiment [1], in experiment [3], in experiment [4], in experiment [5], in experiment [6] and in experiment [7] was > 100 µM in each case. Also, the TGI in [8], in experiment [9] and in experiment [10] was > 100 µM in each case.
`Cc1cc(N(CCOS(C)(=O)=O)CCOS(C)(=O)=O)ccc1C=Nc1ccc(-c2csc(-c3ccccc3)n2)c(Cl)c1`: the TGI is 15.9 µM in experiment [1]; 17.9 µM in experiment [2]; 31.5 µM in experiment [3]; 27.6 µM in experiment [4]; > 62.4 µM in [5]; 46.5 µM in [6]. In addition, the TGI is 29.3 µM in experiment [7], 22.2 µM in experiment [8], 7.65 µM in experiment [9] and 38.7 µM in experiment [10].
For `CN1CCN(C(=O)c2ccc(NC(=O)Nc3ccc(N(C)c4ccnc(Nc5ccc(CS(C)(=O)=O)cc5)n4)cc3)cc2)CC1`, the GI50 in experiment [1] is > 23.3 µM; in experiment [2], > 12.7 µM; in [3], 11.4 µM; in [4], > 25 µM; in [5], > 25 µM; in experiment [6], 9.09 µM. For the same compound, the GI50 in [7] is 7.61 µM; in experiment [8], > 25 µM; in [9], 24.2 µM; in experiment [10], 9.25 µM. Further, the TGI in experiment [1], in experiment [2], in experiment [3], in experiment [4], in [5] and in experiment [6] was > 25 µM throughout. Further, the TGI in experiment [7], in experiment [8], in [9] and in experiment [10] was > 25 µM in each case.
As for `NCCCNc1ccc2c(c1)[n+]([O-])c1ccccc1[n+]2[O-]`, the TGI in experiment [1] is > 100 µM; in [2], 61.4 µM; in [3], > 100 µM; in experiment [4] it was 62.6 µM; in experiment [5], > 100 µM; in experiment [6] it was > 100 µM. The TGI worked out at 93.5 µM in experiment [7], 77.7 µM in experiment [8], 55.9 µM in experiment [9] and 67.2 µM in [10].
For the compound `COc1ccc(C(=S)c2cc(OC)c(OC)c(OC)c2)cc1OC(=O)CCl`, the GI50 was 0.0849 µM in [1]; < 0.01 µM in experiment [2]; 1.99 µM in experiment [3]; 0.55 µM in experiment [4]; < 0.0172 µM in experiment [6]; 0.0614 µM in [7]. The GI50 in [8] was 0.0214 µM; in [9], 0.022 µM; in experiment [10], < 0.0186 µM. Also, the TGI in experiment [1], in experiment [2], in experiment [3], in experiment [4], in experiment [6] and in experiment [7] was > 100 µM throughout. For the same compound, the figures for the TGI in [8], in [9] and in experiment [10] were 61.5 µM, > 77.3 µM and > 100 µM, respectively.
